Measurements as given in US20240041823A1, “USE OF MYCOLACTONE (MLN) AND DERIVATIVES THEREOF FOR TREATMENT OF MICROBIAL INFECTIONS” (priority 2022, published 2024).
Values joined by “and” are separate entries in the source; they are usually repeats but may differ in a detail not shown here. Equal entries are not always repeated. “Also recorded” adds a separate entry of the source. Where two headings read alike, the source gives them in different places.

Key:
[1] = tested on: SARS-CoV-2; experiment: Viral inhibition by Spike immunohistochemistry (IHC) assay in A549-ACE2 cells; assay type: cell-based; details: for 80% Inhibition of SARS-CoV-2: concentration giving 80% inhibition; for IC50: read-out: IC-50, Anti-SARS-CoV-2
[2] = tested on: SARS-CoV-2 Alpha strain; experiment: microbe, parasite or virus in culture; assay type: cell-based; details: read-out: efficacy (viral titer reduction)
[3] = tested on: SARS-CoV-2 Delta strain; experiment: microbe, parasite or virus in culture; assay type: cell-based; details: read-out: efficacy (viral titer reduction)
[4] = tested on: SARS-CoV-2 Omicron strain; experiment: microbe, parasite or virus in culture; assay type: cell-based; details: read-out: efficacy (viral titer reduction)
[5] = tested on: SARS-CoV-2; assay type: cell-based
[6] = tested on: Human alveolar cell line A549; details: A549, maximum concentration tested 1.34 μM
[7] = tested on: immortalized Human fetal renal cell line HEK293; details: HEK293, maximum concentration tested 1.34 μM
[8] = tested on: Human hepatoma cell line Huh7.1; details: Huh7.1, maximum concentration tested 1.34 μM
[9] = tested on: A549, HEK293, and HUH7.1 cell lines
[10] = intradermal injection; cited from earlier work
[11] = Severe acute respiratory syndrome coronavirus 2, plaque assay

With `COc1cccc2[nH]c(C(=O)N[C@@H](CC(C)C)C(=O)N[C@@H](C[C@@H]3CCNC3=O)C(=O)CO)cc12` [PF-00835231, reference compound] the “80% Inhibition of SARS-CoV-2” value [1] was 0.68 µM, the “80% Inhibition of SARS-CoV-2” value ([1]; listed as PF-00835231 (Pfizer)) was 0.68 ± 0.023 µM and the IC50 [1] was 230 ± 30 nM.
For `CCC(CC)COC(=O)[C@H](C)N[P@](=O)(OC[C@H]1O[C@@](C#N)(c2ccc3c(N)ncnn23)[C@H](O)[C@@H]1O)Oc1ccccc1` [Remdesivir, reference compound], the IC50 [2, 11] was 248 nM, the IC50 [3, 11] was 139 nM and the IC50 [4, 11] was 125 nM.
Compound mycolactone [MLN] has an IC50 ([1]; A549-ACE2 cells, Spike IHC) of 20 ± 6 nM, an inhibition ([1]; at 20 nM) of 90% and an average inhibition ([1]; at 30nM, IHC assay in triplicate) of 84%. The inhibition ([1]; at 42 nM) was 100%, the “80% Inhibition of SARS-CoV-2” value [1] was 0.03 µM and 0.03 ± 0.005 µM and the “viral inhibition against SARS-CoV-2” value ([1]; up to 60nM, IHC assay in triplicate) was 100%. It also gave an IC50 ([2]; plaque assay) of 20 nM, an IC50 ([3]; plaque assay) of 15 nM and an IC50 ([4]; plaque assay) of 7 nM. For the same compound, the “blocking of virus entry” value [5] was “complete blocking activity; also recorded: completely blocks; also recorded: complete prevention”, the “blocking of virus spread” value [5] was “complete blocking activity; also recorded: completely blocks; also recorded: complete prevention” and the Cytotoxicity [6] was 17.12±9.1%. The Cytotoxicity [7] was 40.30±3.6%, the Cytotoxicity [8] was 36.25±5.6% and the “cytotoxicity IC50 breakpoint ratio versus anti-SARS-CoV-2 activity” value ([9]; 1.34 μM maximum concentration versus average IC50s) was “more than 65 ×”. The “cytotoxicity against human cell lines” value ([9]; in vitro) was “not cytotoxic” and the “half-life in the periphery blood circulation” value [10] was “short”.
